The test system of assay [1] is HepG2. The assay is described as follows: Antiproliferative activity against human HepG2 cells assessed as cell growth inhibition measured after 72 hrs by MTT assay. As to conditions: HepG2, 72 h.
In assay [2] the test system is A549. The assay is described as follows: Antiproliferative activity against human A549 cells assessed as cell growth inhibition measured after 72 hrs by MTT assay. Conditions: A549, 72 h.
Assay [3] relates to MCF7. The experiment in a line: Antiproliferative activity against human MCF7 cells assessed as cell growth inhibition measured after 72 hrs by MTT assay. As to conditions: MCF7, 72 h. For orientation: Tetrazolium dyes change colour on reduction, which living cells bring about.
Assay [4] has as its target Macrophage-stimulating protein receptor (Homo sapiens, UniProt Q04912). The experiment in a line: Inhibition of RON (unknown origin) by enzymatic assay.
For assay [5], the system named is HepG2. The assay is described as follows: Induction of apoptosis in human HepG2 cells assessed as concentrated chromatin at 0.24 uM by acridine orange staining based fluorescence microscopy. In kind it is functional, cell-based.
Assay [6] concerns HepG2. The assay is described as follows: Induction of apoptosis in human HepG2 cells assessed as decomposed nucleus at 0.24 uM by acridine orange staining based fluorescence microscopy. In kind it is functional, cell-based.
Assay [7] deals with ALK tyrosine kinase receptor (Homo sapiens, UniProt Q9UM73). The experiment in a line: Inhibition of ALK (unknown origin) by enzymatic assay.
Assay [8] addresses Vascular endothelial growth factor receptor 2 (Homo sapiens, UniProt P35968). The assay is described as follows: Inhibition of VEGFR2 (unknown origin) by enzymatic assay.
The subject of assay [9] is A549. The assay is described as follows: Antiproliferative activity against human A549 cells assessed as cell growth inhibition measured after 72 hrs by MTT assay.
Assay [10] deals with Mast/stem cell growth factor receptor Kit (Homo sapiens, UniProt P10721). The assay is described as follows: Inhibition of c-Kit (unknown origin) by enzymatic assay.
Chain of Mast/stem cell growth factor receptor Kit (P10721 whole entry): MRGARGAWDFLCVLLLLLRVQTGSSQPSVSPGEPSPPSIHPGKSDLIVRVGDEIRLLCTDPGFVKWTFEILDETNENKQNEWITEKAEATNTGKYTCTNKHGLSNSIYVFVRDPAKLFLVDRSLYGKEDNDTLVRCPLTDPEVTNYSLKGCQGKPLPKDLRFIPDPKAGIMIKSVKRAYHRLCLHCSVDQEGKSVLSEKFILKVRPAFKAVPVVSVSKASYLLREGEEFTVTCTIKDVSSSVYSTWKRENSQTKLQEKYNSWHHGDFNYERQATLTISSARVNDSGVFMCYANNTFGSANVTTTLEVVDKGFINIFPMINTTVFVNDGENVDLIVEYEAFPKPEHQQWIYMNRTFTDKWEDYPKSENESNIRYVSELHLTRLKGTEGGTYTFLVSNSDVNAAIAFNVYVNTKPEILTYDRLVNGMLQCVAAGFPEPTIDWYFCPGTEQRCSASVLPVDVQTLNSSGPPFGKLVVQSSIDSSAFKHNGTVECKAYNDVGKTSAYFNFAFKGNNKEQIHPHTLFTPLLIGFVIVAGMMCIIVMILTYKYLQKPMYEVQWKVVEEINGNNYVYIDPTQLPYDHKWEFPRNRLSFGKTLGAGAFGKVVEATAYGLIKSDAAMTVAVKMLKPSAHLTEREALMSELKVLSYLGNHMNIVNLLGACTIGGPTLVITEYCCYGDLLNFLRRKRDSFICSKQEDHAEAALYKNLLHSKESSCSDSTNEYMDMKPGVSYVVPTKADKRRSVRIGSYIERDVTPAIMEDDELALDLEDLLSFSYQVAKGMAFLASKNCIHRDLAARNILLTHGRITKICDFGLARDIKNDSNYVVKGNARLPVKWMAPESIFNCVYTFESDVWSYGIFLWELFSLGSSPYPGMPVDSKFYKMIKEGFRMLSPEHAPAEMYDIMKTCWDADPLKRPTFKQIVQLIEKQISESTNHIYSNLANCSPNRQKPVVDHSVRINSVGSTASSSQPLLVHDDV
The target of assay [11] is Platelet-derived growth factor receptor beta (Homo sapiens, UniProt P09619). The assay is described as follows: Inhibition of PDGFRbeta (unknown origin) by enzymatic assay.
Chain of Platelet-derived growth factor receptor beta (P09619 whole entry): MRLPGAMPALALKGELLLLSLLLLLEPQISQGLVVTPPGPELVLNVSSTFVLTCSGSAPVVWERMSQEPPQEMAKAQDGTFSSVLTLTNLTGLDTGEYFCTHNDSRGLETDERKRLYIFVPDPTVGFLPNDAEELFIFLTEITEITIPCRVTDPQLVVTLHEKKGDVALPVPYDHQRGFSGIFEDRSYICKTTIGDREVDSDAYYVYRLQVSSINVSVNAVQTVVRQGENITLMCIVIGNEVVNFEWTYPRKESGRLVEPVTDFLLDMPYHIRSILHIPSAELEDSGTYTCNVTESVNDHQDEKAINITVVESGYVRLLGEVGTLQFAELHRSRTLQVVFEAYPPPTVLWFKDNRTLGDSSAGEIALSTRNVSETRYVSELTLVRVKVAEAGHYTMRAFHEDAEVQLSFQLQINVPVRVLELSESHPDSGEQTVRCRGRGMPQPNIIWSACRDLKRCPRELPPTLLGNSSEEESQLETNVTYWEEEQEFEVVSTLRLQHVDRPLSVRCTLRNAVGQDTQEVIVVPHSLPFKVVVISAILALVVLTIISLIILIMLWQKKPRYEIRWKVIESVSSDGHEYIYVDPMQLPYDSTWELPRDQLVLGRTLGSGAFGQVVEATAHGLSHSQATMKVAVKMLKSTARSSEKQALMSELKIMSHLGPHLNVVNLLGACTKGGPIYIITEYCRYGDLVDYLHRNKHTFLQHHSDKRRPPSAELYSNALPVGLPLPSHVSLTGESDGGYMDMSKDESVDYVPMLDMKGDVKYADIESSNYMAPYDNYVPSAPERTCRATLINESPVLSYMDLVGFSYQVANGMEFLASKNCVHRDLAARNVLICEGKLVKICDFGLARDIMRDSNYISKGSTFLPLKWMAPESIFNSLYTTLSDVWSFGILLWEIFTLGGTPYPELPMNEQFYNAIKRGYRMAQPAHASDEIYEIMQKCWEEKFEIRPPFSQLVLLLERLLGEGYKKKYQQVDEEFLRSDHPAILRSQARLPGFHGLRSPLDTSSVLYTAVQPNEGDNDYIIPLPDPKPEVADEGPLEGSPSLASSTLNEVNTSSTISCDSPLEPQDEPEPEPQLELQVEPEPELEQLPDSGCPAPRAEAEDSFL
The subject of assay [12] is HepG2. The experiment in a line: Induction of apoptosis in human HepG2 cells assessed as dispersed nucleus at 0.24 uM by acridine orange staining based fluorescence microscopy. In kind it is functional, cell-based.
Assay [13] deals with HepG2. The experiment in a line: Induction of apoptosis in human HepG2 cells assessed as abnormal cell morphology at 0.24 uM by acridine orange staining based fluorescence microscopy. In kind it is functional.
The subject of assay [14] is HepG2. The experiment in a line: Induction of apoptosis in human HepG2 cells assessed as abnormal cell morphology at 0.24 uM by inverted microscopy microscopy. In kind it is functional, cell-based.
Assay [15] addresses Hepatocyte growth factor receptor (Homo sapiens, UniProt P08581). The experiment in a line: Inhibition of c-Met (unknown origin) by caliper mobility shift assay.

In general, IC50 refers to the concentration needed to halve the response being measured.

Active and inactive are the calls of the source. The rule behind the calls is not given here.

Chain of Hepatocyte growth factor receptor (P08581 whole entry): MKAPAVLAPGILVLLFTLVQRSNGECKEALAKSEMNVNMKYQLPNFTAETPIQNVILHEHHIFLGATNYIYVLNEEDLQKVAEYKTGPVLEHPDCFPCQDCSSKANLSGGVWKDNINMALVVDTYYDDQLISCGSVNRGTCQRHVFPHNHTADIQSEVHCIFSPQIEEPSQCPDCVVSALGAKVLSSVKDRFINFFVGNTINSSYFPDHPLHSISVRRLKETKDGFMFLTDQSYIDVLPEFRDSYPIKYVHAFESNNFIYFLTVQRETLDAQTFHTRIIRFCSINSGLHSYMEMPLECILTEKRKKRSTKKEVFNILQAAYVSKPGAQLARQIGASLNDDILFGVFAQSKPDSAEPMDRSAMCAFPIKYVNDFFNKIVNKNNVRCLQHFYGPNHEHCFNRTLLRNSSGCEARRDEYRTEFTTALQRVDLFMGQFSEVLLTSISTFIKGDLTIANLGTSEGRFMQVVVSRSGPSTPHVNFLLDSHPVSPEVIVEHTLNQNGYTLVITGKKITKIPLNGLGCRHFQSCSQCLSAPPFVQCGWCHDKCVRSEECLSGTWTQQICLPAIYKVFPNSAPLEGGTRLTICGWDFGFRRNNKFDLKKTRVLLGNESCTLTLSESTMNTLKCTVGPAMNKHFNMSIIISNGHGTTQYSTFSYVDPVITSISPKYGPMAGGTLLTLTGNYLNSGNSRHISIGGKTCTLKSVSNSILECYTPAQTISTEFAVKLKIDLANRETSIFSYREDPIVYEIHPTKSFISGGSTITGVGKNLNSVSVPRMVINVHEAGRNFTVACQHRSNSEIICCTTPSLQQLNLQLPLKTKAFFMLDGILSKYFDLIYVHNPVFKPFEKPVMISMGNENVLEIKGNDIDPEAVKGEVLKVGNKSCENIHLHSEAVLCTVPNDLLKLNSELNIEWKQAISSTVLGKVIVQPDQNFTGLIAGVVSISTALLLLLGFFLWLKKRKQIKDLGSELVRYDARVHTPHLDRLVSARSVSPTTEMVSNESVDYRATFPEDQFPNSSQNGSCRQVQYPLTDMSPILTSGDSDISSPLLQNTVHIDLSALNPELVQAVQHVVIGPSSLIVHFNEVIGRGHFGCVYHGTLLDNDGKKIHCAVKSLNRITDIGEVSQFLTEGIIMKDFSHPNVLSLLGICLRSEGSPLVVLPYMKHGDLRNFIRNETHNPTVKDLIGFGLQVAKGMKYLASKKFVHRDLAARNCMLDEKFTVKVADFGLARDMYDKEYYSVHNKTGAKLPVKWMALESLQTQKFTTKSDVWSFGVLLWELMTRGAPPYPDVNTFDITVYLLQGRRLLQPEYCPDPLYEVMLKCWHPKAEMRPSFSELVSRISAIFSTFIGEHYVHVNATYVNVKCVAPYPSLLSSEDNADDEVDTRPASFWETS
Chain of Vascular endothelial growth factor receptor 2 (P35968 whole entry): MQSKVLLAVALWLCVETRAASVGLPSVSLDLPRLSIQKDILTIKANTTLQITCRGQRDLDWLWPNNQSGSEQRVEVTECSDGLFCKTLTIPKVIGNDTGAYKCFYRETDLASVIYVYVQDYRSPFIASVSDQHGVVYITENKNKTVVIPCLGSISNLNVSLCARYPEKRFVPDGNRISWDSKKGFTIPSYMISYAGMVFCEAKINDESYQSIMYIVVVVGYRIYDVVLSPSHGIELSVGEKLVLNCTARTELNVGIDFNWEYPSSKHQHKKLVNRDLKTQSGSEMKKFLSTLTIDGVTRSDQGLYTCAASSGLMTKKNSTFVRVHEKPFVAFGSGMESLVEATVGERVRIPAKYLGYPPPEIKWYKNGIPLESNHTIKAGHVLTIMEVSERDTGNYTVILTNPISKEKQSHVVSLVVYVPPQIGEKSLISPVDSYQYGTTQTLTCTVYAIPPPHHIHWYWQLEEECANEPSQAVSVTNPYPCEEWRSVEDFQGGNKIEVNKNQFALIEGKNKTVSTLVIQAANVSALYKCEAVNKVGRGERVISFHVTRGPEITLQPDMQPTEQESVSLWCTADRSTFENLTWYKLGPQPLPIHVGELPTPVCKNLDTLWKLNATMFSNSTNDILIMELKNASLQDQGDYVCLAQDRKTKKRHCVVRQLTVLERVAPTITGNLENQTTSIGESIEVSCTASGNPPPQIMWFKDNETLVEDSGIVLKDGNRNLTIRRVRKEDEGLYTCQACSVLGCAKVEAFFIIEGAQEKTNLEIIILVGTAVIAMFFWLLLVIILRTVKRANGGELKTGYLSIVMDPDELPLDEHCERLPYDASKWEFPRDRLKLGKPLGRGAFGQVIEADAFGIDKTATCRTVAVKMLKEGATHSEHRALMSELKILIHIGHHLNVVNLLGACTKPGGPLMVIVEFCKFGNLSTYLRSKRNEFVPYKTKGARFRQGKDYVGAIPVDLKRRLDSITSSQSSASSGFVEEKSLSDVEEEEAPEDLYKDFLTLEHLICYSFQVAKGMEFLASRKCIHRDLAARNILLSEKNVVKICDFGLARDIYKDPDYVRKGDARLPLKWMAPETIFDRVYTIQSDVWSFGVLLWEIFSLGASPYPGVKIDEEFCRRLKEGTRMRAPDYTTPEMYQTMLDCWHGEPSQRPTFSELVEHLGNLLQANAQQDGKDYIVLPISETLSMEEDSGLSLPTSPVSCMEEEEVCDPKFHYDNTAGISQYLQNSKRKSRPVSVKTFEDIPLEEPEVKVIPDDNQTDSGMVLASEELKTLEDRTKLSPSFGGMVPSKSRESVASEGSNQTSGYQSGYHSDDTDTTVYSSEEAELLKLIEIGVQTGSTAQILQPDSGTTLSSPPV

Turning to `O=C(Nc1ccc(Oc2ccnc3[nH]ccc23)cc1)c1cn(-c2ccc(Br)cc2F)c2ccccc2c1=O`, the IC50 in assay [1] turned out to be 790 nM; in assay [2], 1330 nM.

On to `O=C(Nc1ccc(Oc2ccnc3[nH]ccc23)c(F)c1)c1cn(-c2ccccc2)c2ccccc2c1=O`, for which the IC50 in assay [3] was determined as 430 nM; in [1] it was 760 nM; in [2], 420 nM.

Take `O=C(Nc1ccc(Oc2ccnc3[nH]ccc23)cc1)c1cn(-c2ccc(F)c(Cl)c2)c2ccccc2c1=O`: the IC50 in [3] was determined as 1510 nM; in [1], 1120 nM; in assay [2], 4810 nM.

On to `COc1cc2c(Oc3ccc(NC(=O)C4(C(=O)Nc5ccc(F)cc5)CC4)cc3F)ccnc2cc1OCCCN1CCOCC1` [FORETINIB], for which the IC50 in assay [3] is 730 nM; in assay [1], 350 nM; in assay [2], 480 nM.

For `Cn1ccc2c(Oc3ccc(NC(=O)c4cn(-c5ccc(Br)cc5)c5ccccc5c4=O)cc3F)ccnc21`, the half-maximal inhibitory concentration (IC50) is 1830 nM in [3], 1260 nM in [1] and 1390 nM in [2].

Consider `COc1ccc(-n2cc(C(=O)Nc3ccc(Oc4ccnc5c4ccn5C)c(F)c3)c(=O)c3ccccc32)cc1`, for which the IC50 in assay [3] came out at 6720 nM; in assay [1] it was 3750 nM; in assay [2], 3210 nM.

For the compound `O=C(Nc1ccc(Oc2ccnc3[nH]ccc23)cc1)c1cn(-c2ccc(F)cc2)c2ccccc2c1=O`, the IC50 in assay [3] was found to be 720 nM; in [1] it was 450 nM; in assay [2], 390 nM.

Take `O=C(Nc1ccc(Oc2ccnc3[nH]ccc23)c(F)c1)c1cn(-c2ccc(Br)cc2)c2ccccc2c1=O`: the IC50 is 650 nM in [3], 710 nM in assay [1] and 950 nM in assay [2].

For the compound `Cn1ccc2c(Oc3ccc(NC(=O)c4cn(-c5ccc(F)cc5)c5ccccc5c4=O)cc3F)ccnc21`, the figures for the IC50 in [1] and in [2] were 2010 nM and 1460 nM, respectively.

With `O=C(Nc1ccc(Oc2ccnc3[nH]ccc23)cc1)c1cn(-c2ccc(Cl)cc2)c2ccccc2c1=O`, the IC50 in [3] was found to be 1590 nM; in [1] it was 250 nM; in assay [2], 650 nM.

Regarding `O=C(Nc1ccc(Oc2ccnc3[nH]ccc23)c(F)c1)c1cn(-c2ccc(F)cc2)c2ccccc2c1=O`, the 50% inhibitory concentration (IC50) is above 10000 nM in assay [4]; 520 nM in [3]; above 10000 nM in assay [7]; above 10000 nM in [8]; 270 nM in assay [1]; 1310 nM in [10]. Further, the IC50 in [11] is above 10000 nM; in assay [2], 290 nM. Also, the outcome in assay [5], in assay [6], in assay [12], in [13] and in assay [14] was Active. Moreover, the inhibition result in assay [9] was “Dose-dependent effect”.

Regarding `O=C(Nc1ccc(Oc2ccnc3[nH]ccc23)cc1)c1cn(-c2ccccc2)c2ccccc2c1=O`, the figures for the IC50 in assay [3], in [1] and in assay [2] were 3560 nM, 2250 nM and 1030 nM, respectively.

On to `O=C(Nc1ccc(Oc2ccnc3[nH]ccc23)c(F)c1)c1cn(-c2ccc(F)c(Cl)c2)c2ccccc2c1=O`, for which the concentration for half-maximal inhibition (IC50) in assay [1] was 3390 nM; in assay [2], 2150 nM.

For `O=C(Nc1ccc(Oc2ccnc3[nH]ccc23)c(F)c1)c1cn(-c2ccc(Br)cc2F)c2ccccc2c1=O`, the IC50 in assay [3] was determined as 1390 nM; in assay [1], 2200 nM; in [2], 1150 nM.

Consider `Cn1ccc2c(Oc3ccc(NC(=O)c4cn(-c5ccc(F)c(Cl)c5)c5ccccc5c4=O)cc3F)ccnc21`, for which, in [2], the IC50 is 1210 nM.

Turning to `COc1ccc(-n2cc(C(=O)Nc3ccc(Oc4ccnc5[nH]ccc45)cc3)c(=O)c3ccccc32)cc1`, the results for the IC50 in assay [3], in assay [1] and in assay [2] were 4650 nM, 5950 nM and 4980 nM, respectively.

With `Cn1ccc2c(Oc3ccc(NC(=O)c4cn(-c5ccccc5)c5ccccc5c4=O)cc3F)ccnc21`, the IC50 in assay [3] worked out at 2790 nM; in assay [1], 2170 nM; in [2] it was 1720 nM.

With `COc1ccc(-n2cc(C(=O)Nc3ccc(Oc4ccnc5[nH]ccc45)c(F)c3)c(=O)c3ccccc32)cc1`, the IC50 turned out to be 6620 nM in assay [3], 6530 nM in assay [1] and 4150 nM in assay [2].

As for `O=C(Nc1ccc(Oc2ccnc3[nH]ccc23)c(F)c1)c1cn(-c2ccc(Cl)cc2)c2ccccc2c1=O`, the IC50 in assay [15] is 41 nM; in assay [1] it was 380 nM; in [2], 320 nM.

As to `Cn1ccc2c(Oc3ccc(NC(=O)c4cn(-c5ccc(Cl)cc5)c5ccccc5c4=O)cc3F)ccnc21`, the concentration for half-maximal inhibition (IC50) in assay [3] came to 2120 nM; in assay [15], 87 nM; in assay [1], 290 nM; in assay [2] it was 250 nM.

Consider `O=C(Nc1ccc(Oc2ccnc3[nH]ccc23)c(F)c1)c1cn(-c2ccc(C(F)(F)F)cc2Cl)c2ccccc2c1=O`, for which the IC50 in assay [3] was determined as 1120 nM; in assay [1] it was 1840 nM; in assay [2] it was 1620 nM.

On to `O=C(Nc1ccc(Oc2ccnc3[nH]ccc23)cc1)c1cn(-c2ccc(Br)cc2)c2ccccc2c1=O`, for which the half-maximal inhibitory concentration (IC50) was 610 nM in [3], 10 nM in [15], 220 nM in assay [1] and 450 nM in [2].

With `O=C(Nc1ccc(Oc2ccnc3[nH]ccc23)cc1)c1cn(-c2ccc(C(F)(F)F)cc2Cl)c2ccccc2c1=O`, the IC50 in [3] came out at 3570 nM; in [2] it was 2350 nM.

With `Cn1ccc2c(Oc3ccc(NC(=O)c4cn(-c5ccc(Br)cc5F)c5ccccc5c4=O)cc3F)ccnc21`, the IC50 in assay [3] is 420 nM; in assay [1], 2510 nM; in assay [2], 1520 nM.

As to `Cn1ccc2c(Oc3ccc(NC(=O)c4cn(-c5ccc(C(F)(F)F)cc5Cl)c5ccccc5c4=O)cc3F)ccnc21`, the IC50 in assay [3] is 190 nM; in [2], 2050 nM.

The values above are taken from ChEMBL document CHEMBL4602641, “Discovery of novel pyrrolo[2,3-b]pyridine derivatives bearing 4-oxoquinoline moiety as potential antitumor inhibitor” (Bioorg Med Chem Lett, 2020).
